Here are results for eight compounds from patent US8604046B2, “Substituted piperidine spiro pyrrolidinone and piperidinone, preparation and therapeutic use thereof” (Sanofi, priority 2008, dated 2013).

The target of test [1] is T1, rhesus H3 receptor (Macaca mulatta, UniProt Q865E1). Nature of the test: Rhesus H3 [3H]-methylhistamine radioligand binding assay. On the set-up: species or system rhesus monkey (Macacca Mulatta). The note with it: [3H]-Methylhistamine 2 nM, rhesus H3 membranes, WGA SPA beads, Cheng-Prusoff. A digest of the protocol:
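Membranes from tetracycline-induced (500 ng/ml, 24 h) Flp-In T-REx 293 cells expressing 445-aa rhesus H3 receptor, 20-30 μg protein per reaction. WGA SPA format with 2 nM [3H]-methylhistamine, 1 hour at 25° C; Ki obtained via Hill transformation and Cheng-Prusoff equation.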

Test [2] has as its target T1, rhesus H3 receptor. Nature of the test: GTPγS radioligand binding assay, inhibition of rhesus H3 constitutive functional activity (inverse agonism). The class given is biochemical, rhesus monkey (Macacca Mulatta). Further details: concentration or dose not given beside the values. The note with it: rhesus H3 cell membranes, relative to basal levels. In short, it runs like this:
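Membranes from tetracycline-induced (500 ng/ml, 24 h) Flp-In T-REx 293 cells stably expressing the 445-aa rhesus H3 receptor, resuspended in 5 mM HEPES pH 7.4 at 10 mg/ml protein. Inverse agonism measured as inhibition of constitutive GTPγS binding.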

T1 sequence (Q865E1 1-445): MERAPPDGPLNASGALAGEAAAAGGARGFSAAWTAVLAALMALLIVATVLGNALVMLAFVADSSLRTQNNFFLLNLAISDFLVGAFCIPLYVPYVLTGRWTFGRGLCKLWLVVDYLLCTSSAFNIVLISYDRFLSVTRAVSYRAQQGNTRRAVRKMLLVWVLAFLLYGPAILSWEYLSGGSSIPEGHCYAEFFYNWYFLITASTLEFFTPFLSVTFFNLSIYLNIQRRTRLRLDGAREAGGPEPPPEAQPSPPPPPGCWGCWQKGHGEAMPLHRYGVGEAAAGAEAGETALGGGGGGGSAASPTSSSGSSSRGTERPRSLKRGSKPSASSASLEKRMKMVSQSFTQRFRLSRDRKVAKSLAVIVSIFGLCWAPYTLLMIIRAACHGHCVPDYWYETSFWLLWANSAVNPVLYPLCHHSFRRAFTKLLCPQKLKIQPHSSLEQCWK

As usually defined, the Ki is a measure of affinity in units of concentration, obtained from inhibition or displacement. In turn, `C[C@H]1CCCN1C1CCN(c2ccc(N3CCC4(CCN(S(=O)(=O)c5ccccc5)CC4)C3=O)cc2)CC1` [Example 50, 8-Benzenesulfonyl-2-{4-[4-(2S-2-methyl-pyrrolidin-1-yl)-piperidin-1-yl]-phenyl}-2,8-diaza-spiro[4.5]decan-1-one] showed a Ki at rhesus H3 receptor [1] of 0.24 nM. Besides, the “Inverse Agonism: % inhibition of Basal GTPγS binding in Rhesus H3” value (“Inverse Agonism: % inhibition” for short) at rhesus H3 receptor [2] is −23%.
The compound `C[C@H]1CCCCN1[C@H]1CCN(c2ccc(N3CCC4(CCN(C(=O)OC(C)(C)C)CC4)C3=O)c(F)c2)C1` [Example 43, 2-{4-[3-((2S,3′S)-2-Methyl-piperidin-1-yl)-pyrrolidin-1-yl]-2-fluoro-phenyl}-1-oxo-2,8-diaza-spiro[4.5]decane-8-carboxylic acid tert-butyl ester] came in with a Ki at rhesus H3 receptor [1] of 4.3 nM. On rhesus H3 receptor [2], the “Inverse Agonism: % inhibition” value is −19%.
For `C[C@H]1CCCN1[C@H]1CCN(c2ccc(N3CCC4(CCN(CC5CC5)CC4)C3=O)c(C(F)(F)F)c2)C1` [Example 67, 8-Cyclopropylmethyl-2-[4-((2S,3′S)-2-methyl-[1,3′]bipyrrolidinyl-1′-yl)-2-trifluoromethyl-phenyl]-2,8-diaza-spiro[4.5]decan-1-one], the affinity at rhesus H3 receptor [1], expressed as Ki, was 1.4 nM. At rhesus H3 receptor [2], the “Inverse Agonism: % inhibition” value is reported as −12%.
With `C[C@H]1CCCN1[C@H]1CCN(c2ccc(N3CCCC4(CCN(Cc5ccco5)CC4)C3=O)c(F)c2)C1` [Example 37, 2-[2-Fluoro-4-((2S,3′S)-2-methyl-[1,3′]bipyrrolidinyl-1′-yl)-phenyl]-9-furan-2-ylmethyl-2,9-diaza-spiro[5.5]undecan-1-one], at rhesus H3 receptor [1], affinity was put at a Ki of 0.1 nM. For the same compound, the “Inverse Agonism: % inhibition” value at rhesus H3 receptor [2] is recorded as −17%.
On the same counts, the results for `C[C@H]1CCCN1[C@H]1CCN(c2ccc(N3CCC4(CCN(C(=O)c5ccccc5)CC4)C3=O)c(C(F)(F)F)c2)C1` [Example 63, 8-Benzoyl-2-[4-((2S,3′S)-2-methyl-[1,3′]bipyrrolidinyl-1′-yl)-2-trifluoromethyl-phenyl]-2,8-diaza-spiro[4.5]decan-1-one] are 64 nM and −18%.
Turning to `C[C@H]1CCCN1[C@H]1CCN(c2ccc(N3CCC4(CCN(Cc5ccco5)CC4)C3=O)c(C(F)(F)F)c2)C1` [Example 66, 8-Furan-2-ylmethyl-2-[4-((2S,3′S)-2-methyl-[1,3′]bipyrrolidinyl-1′-yl)-2-trifluoromethyl-phenyl]-2,8-diaza-spiro[4.5]decan-1-one], affinity at rhesus H3 receptor [1] was put at a Ki of 5.5 nM. Also, the “Inverse Agonism: % inhibition” value on rhesus H3 receptor [2] is given as −19%.
On rhesus H3 receptor [1], `C[C@H]1CCCCN1[C@H]1CCN(c2ccc(N3CCC4(CCNCC4)C3=O)c(F)c2)C1.Cl` [Example 49, 2-{4-[3-((2S,3′S)-2-Methyl-piperidin-1-yl)-pyrrolidin-1-yl]-2-fluoro-phenyl}-2,8-diaza-spiro[4.5]decan-1-one Hydrochloride] came in with an inhibition constant (Ki) of 0.5 nM. Also, on rhesus H3 receptor [2], the “Inverse Agonism: % inhibition” value was −22%.
With `C[C@H]1CCCCN1[C@H]1CCN(c2ccc(N3CCC4(CCN(C(=O)C5CCCC5)CC4)C3=O)c(C(F)(F)F)c2)C1` [Example 55, 8-Cyclopentanecarbonyl-2-{4-[3-((2S,3′S)-2-methyl-piperidin-1-yl)-pyrrolidin-1-yl]-2-trifluoromethyl-phenyl}-2,8-diaza-spiro[4.5]decan-1-one], the affinity on rhesus H3 receptor [1] corresponds to a Ki of 2.1 nM. In addition, on rhesus H3 receptor [2], the “Inverse Agonism: % inhibition” value was −27%.
